Test results: patent US7138361B2, “Herbicidal heterocycles” (E. I. du Pont de Nemours and Company, priority 2000, dated 2006)

Legend:
Format in all cases: in vivo
[1] = tested on: Nightshade; assay: Test C preemergence
[2] = tested on: Sunflower; assay: Test C preemergence; settings: Rate 125 g/ha; scale 0 to 100, 0 no effect, 100 complete control
[3] = tested on: Surinam grass (Brachiaria decumbens); assay: Test C preemergence
Outline: (§1)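 Visual injury scores of 0–100, with 100 meaning complete control, were given relative to controls after 12–14 days in the greenhouse. Treatments used a surfactant-containing non-phytotoxic solvent formulation, sprayed on seeded pots preemergence or on 1–4-leaf plants of 2–18 cm postemergence.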

[4] = tested on: bermudagrass (Cynodon dactylon); assay: Test C preemergence
Outline: as §1

[5] = tested on: cocklebur (Xanthium strumarium); assay: Test C preemergence
Outline: as §1

[6] = tested on: corn (Zea mays); assay: Test C preemergence
Outline: as §1

[7] = tested on: crabgrass (Digitaria sanguinalis); assay: Test C preemergence
Outline: as §1

[8] = tested on: giant foxtail (Setaria faberii); assay: Test C preemergence
Outline: as §1

[9] = tested on: goosegrass (Eleusine indica); assay: Test C preemergence
Outline: as §1

[10] = tested on: johnsongrass (Sorghum halepense); assay: Test C preemergence
Outline: as §1

[11] = tested on: kochia (Kochia scoparia); assay: Test C preemergence
Outline: as §1

[12] = tested on: lambsquarters (Chenopodium album); assay: Test C preemergence
Outline: as §1

[13] = tested on: morningglory (Ipomoea hederacea); assay: Test C preemergence
Outline: as §1

[14] = tested on: pigweed (Amaranthus retroflexus); assay: Test C preemergence
Outline: as §1

[15] = tested on: soybean (Glycine max); assay: Test C preemergence
Outline: as §1

[16] = tested on: velvetleaf (Abutilon theophrasti); assay: Test C preemergence
Outline: as §1

[17] = tested on: woolly cupgrass (Eriochloa villosa); assay: Test C preemergence
Outline: as §1

[18] = tested on: yellow nutsedge (Cyperus esculentus); assay: Test C preemergence
Outline: as §1

[19] = tested on: barnyardgrass (Echinochloa crus-galli); assay: Test C flooded paddy test; settings: for Barnyardgrass plant response rating: Flooded Paddy, scale 0 to 100, 0 no effect, 100 complete control
Outline: (§2)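 Response on a 0-to-100 scale (no effect to complete control) was assessed by eye versus controls. Plants had reached 2 leaves when treated in flooded paddy conditions. The assessment took place after 12–14 days of greenhouse growth.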

[20] = tested on: duck salad (Heteranthera limosa); assay: Test C flooded paddy test; settings: for Ducksalad plant response rating: Flooded Paddy, scale 0 to 100, 0 no effect, 100 complete control
Outline: as §2

[21] = tested on: smallflower flatsedge (Cyperus difformis); assay: Test C flooded paddy test; settings: for Flatsedge plant response rating: Flooded Paddy, scale 0 to 100, 0 no effect, 100 complete control
Outline: as §2

[22] = tested on: Sunflower; assay: Test C preemergence; settings: Rate 500 g/ha, visual evaluation after 12 to 14 days
[23] = Rate 125 g/ha, scale 0 to 100, 0 no effect, 100 complete control
[24] = preemergence, Rate 62 g/ha, scale 0 to 100
[25] = preemergence, Rate 500 g/ha, visual evaluation after 12 to 14 days
[26] = preemergence, Rate 250 g/ha, scale 0 to 100, 0 no effect, 100 complete control
[27] = flooded paddy test, Rate 125 g/ha, scale 0 to 100 (0 no effect, 100 complete control)
[28] = flooded paddy test, Rate 62 g/ha, visually evaluated after 12 to 14 days, 0 = no effect, 100 = complete control

In the case of `CCCC(C)c1ccn(C2CCN(c3cccc(OCC)c3)C2=O)n1` (centres unmarked) [Compound 129], the “Plant response rating, Nightshade” value ([1]; Rate 62 g/ha, scale 0 to 100) is reported as 0, the “Plant response rating, Nightshade” value [1, 23] is reported as 0 and the “Plant response rating, Nightshade” value ([1]; Rate 250 g/ha, scale 0 to 100, 0 no effect, 100 complete control) is reported as 10. For the same compound, the “Plant response rating, Sunflower” value [2] was 0, the “Plant response rating, Surinam grass” value [3, 23] was 80 and the “Plant response rating, Surinam grass” value [3, 24] was 80. For the same compound, the “Plant response rating (0 to 100), Surinam grass” value [3, 25] was 100, the “Plant response rating, Surinam grass” value [3, 26] was 90 and the “Plant response rating, Bermudagrass” value [4, 23] was 100. For the same compound, the “Plant response rating, Bermudagrass” value [4, 24] was 100, the “Plant response rating (0 to 100 where 0 is no effect and 100 is complete control), Bermudagrass” value [4, 25] was 100 and the “Plant response rating, Bermudagrass” value [4, 26] was 100. For the same compound, the “Plant response rating, Cocklebur” value [5, 23] was 0, the “Plant response rating, Cocklebur” value [5, 24] was 0 and the “Plant response rating (0 to 100), Cocklebur” value [5, 25] was 0. For the same compound, the “Plant response rating, Cocklebur” value [5, 26] was 0, the “Plant response rating, Corn” value [6, 23] was 20 and the “Plant response rating, Corn” value [6, 24] was 0. The “Plant response rating (0 to 100), Corn” value [6, 25] was 30, the “Plant response rating, Corn” value [6, 26] was 30 and the “Plant response rating, Crabgrass” value [7, 23] was 100. For the same compound, the “Plant response rating, Crabgrass” value [7, 24] was 100, the “Plant response rating (0 to 100), Crabgrass” value [7, 25] was 100 and the “Plant response rating, Crabgrass” value [7, 26] was 100. The “Plant response rating, Foxtail, Giant” value [8, 23] was 60, the “Plant response rating, Foxtail, Giant” value [8, 24] was 20 and the “Plant response rating (0 to 100), Foxtail, Giant” value [8, 25] was 100. For the same compound, the “Plant response rating, Foxtail, Giant” value [8, 26] was 80, the “Plant response rating, Goosegrass” value [9, 23] was 100 and the “Plant response rating, Goosegrass” value [9, 24] was 100. The “Plant response rating (0 to 100), Goosegrass” value [9, 25] was 100, the “Plant response rating, Goosegrass” value [9, 26] was 100 and the “Plant response rating, Johnsongrass” value [10, 23] was 70. The “Plant response rating, Johnsongrass” value [10, 24] was 20, the “Plant response rating (0 to 100), Johnsongrass” value [10, 25] was 100 and the “Plant response rating, Johnsongrass” value [10, 26] was 100. The “Plant response rating, Kochia” value [11, 23] was 100, the “Plant response rating, Kochia” value [11, 24] was 0 and the “Plant response rating (0 to 100), Kochia” value [11, 25] was 100. The “Plant response rating, Kochia” value [11, 26] was 100, the “Plant response rating, Lambsquarters” value [12, 23] was 100 and the “Plant response rating, Lambsquarters” value [12, 24] was 100. For the same compound, the “Plant response rating (0 to 100), Lambsquarters” value [12, 25] was 100, the “Plant response rating, Lambsquarters” value [12, 26] was 100 and the “Plant response rating, Morningglory” value [13, 23] was 0. For the same compound, the “Plant response rating, Morningglory” value [13, 24] was 0, the “Plant response rating (0 to 100), Morningglory” value [13, 25] was 0 and the “Plant response rating, Pigweed” value [14, 23] was 100. The “Plant response rating, Pigweed” value [14, 24] was 20, the “Plant response rating (0 to 100), Pigweed” value [14, 25] was 100 and the “Plant response rating, Pigweed” value [14, 26] was 60. The “Plant response rating, Soybean” value [15, 23] was 20, the “Plant response rating, Soybean” value [15, 24] was 10 and the “Plant response rating (0 to 100), Soybean” value [15, 25] was 20. The “Plant response rating, Soybean” value [15, 26] was 20, the “Plant response rating, Velvetleaf” value [16, 23] was 0 and the “Plant response rating, Velvetleaf” value [16, 24] was 0. The “Plant response rating (0 to 100), Velvetleaf” value [16, 25] was 10, the “Plant response rating, Velvetleaf” value [16, 26] was 0 and the “Plant response rating, Cupgrass, Woolly” value [17, 23] was 100. The “Plant response rating, Cupgrass, Woolly” value [17, 24] was 90, the “Plant response rating (0 to 100), Cupgrass, Woolly” value [17, 25] was 100 and the “Plant response rating, Cupgrass, Woolly” value [17, 26] was 100. The “Plant response rating, Nutsedge” value [18, 23] was 0, the “Plant response rating, Nutsedge” value [18, 24] was 0 and the “Plant response rating (0 to 100), Nutsedge” value [18, 25] was 90. For the same compound, the “Plant response rating, Nutsedge” value [18, 26] was 50, the “Barnyardgrass plant response rating” value ([19]; Rate 250 g/ha) was 80 and the “Barnyardgrass plant response rating” value ([19]; Rate 500 g/ha) was 100. The “Plant response rating, Barnyardgrass” value [19, 27] was 50, the “Plant response rating (scale 0 to 100), Barnyardgrass” value [19, 28] was 30 and the “Ducksalad plant response rating” value ([20]; Rate 250 g/ha) was 90. For the same compound, the “Ducksalad plant response rating” value ([20]; Rate 500 g/ha) was 90, the “Plant response rating, Ducksalad” value [20, 27] was 30 and the “Plant response rating (scale 0 to 100), Ducksalad” value [20, 28] was 20. The “Flatsedge plant response rating” value ([21]; Rate 250 g/ha) was 90, the “Flatsedge plant response rating” value ([21]; Rate 500 g/ha) was 90 and the “Plant response rating, Flatsedge” value [21, 27] was 80. The “Plant response rating (scale 0 to 100), Flatsedge” value [21, 28] was 70 and the “Plant response rating (0 to 100), Sunflower” value [22] was 10.
